Values joined by “and” are separate entries in the source; they are usually repeats but may differ in a detail not shown here. Equal values may be shown once. Toxic doses and inconclusive results are not listed.

This passage reports T/C results from PubChem BioAssay AID248 (DTP/NCI, 2004).

For the assay, the system named is L1210 leukemia ip in BDF1 mice, survival T/C. Kind of assay: NCI In Vivo Anticancer Drug Screen. Data for tumor model L1210 Leukemia (intraperitoneal) in B6D2F1 (BDF1) mice. Particulars: endpoint: mean survival time, higher = longer survival. The procedure, abridged: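 Value reflects the ratio of survival in compound-treated mice to survival in vehicle-treated controls, with both groups carrying the same transplanted tumor.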

Where [1] appears, read: dose: 100.0 mg/kg/injection, schedule: Q01DX001 (ip), vehicle: Klucel (hydroxypropylcellulose) (HPC).
The mark [2] stands for this setting: dose: 200.0 mg/kg/injection, schedule: Q01DX001 (ip), vehicle: Klucel (hydroxypropylcellulose) (HPC).
[3] abbreviates: dose: 400.0 mg/kg/injection, schedule: Q01DX001 (ip), vehicle: Klucel (hydroxypropylcellulose) (HPC).
Setting [4] is: dose: 100.0 mg/kg/injection, schedule: Q04DX002 (ip), vehicle: saline with Tween-80.
Where [5] appears, read: dose: 50.0 mg/kg/injection, schedule: Q01DX009 (ip), vehicle: saline with Tween-80.
Where [6] appears, read: dose: 100.0 mg/kg/injection, schedule: Q01DX009 (ip), vehicle: saline with Tween-80.
[7] abbreviates: dose: 200.0 mg/kg/injection, schedule: Q01DX009 (ip), vehicle: saline with Tween-80.
[8] abbreviates: dose: 100.0 mg/kg/injection, schedule: Q01DX009 (ip), vehicle: Klucel (hydroxypropylcellulose) (HPC).
Setting [9] is: dose: 200.0 mg/kg/injection, schedule: Q01DX009 (ip), vehicle: Klucel (hydroxypropylcellulose) (HPC).
Where [10] appears, read: dose: 400.0 mg/kg/injection, schedule: Q01DX009 (ip), vehicle: Klucel (hydroxypropylcellulose) (HPC).

With `O=C(Oc1ccccc1)c1ccc2ccccc2c1O`, the T/C reads like this: (dose: 100.0 mg/kg/injection, schedule: Q04DX002 (ip), vehicle: Klucel (hydroxypropylcellulose) (HPC)) 100 % of control; (dose: 200.0 mg/kg/injection, schedule: Q04DX002 (ip), vehicle: Klucel (hydroxypropylcellulose) (HPC)) 91 % of control; (dose: 400.0 mg/kg/injection, schedule: Q04DX002 (ip), vehicle: Klucel (hydroxypropylcellulose) (HPC)) 100 % of control.

`CC1(C)CCCC2(C)C(=O)C3CCC2C31` (stereo not given): the T/C is 98 % of control under setting [1], 91 % of control under setting [2] and 91 % of control under setting [3].

Consider `CCOC(=O)C1CC1(C)Br` (stereo not given), for which the T/C (dose: 3.13 mg/kg/injection, schedule: Q04DX002 (ip), vehicle: saline with Tween-80) was 97 % of control; the T/C (dose: 6.25 mg/kg/injection, schedule: Q04DX002 (ip), vehicle: saline with Tween-80) is 87 % of control; the T/C (dose: 25.0 mg/kg/injection, schedule: Q04DX002 (ip), vehicle: saline with Tween-80) is 87 % of control; the T/C under setting [4] is 90 % of control.

For the compound `Cc1ccc(SC(=O)CC(=O)Sc2ccc(C)cc2)cc1`, the T/C by setting is: under setting [5], 91 % of control; under setting [6], 94 % of control; under setting [7], 97 % of control.

For the compound `COc1ccccc1-n1c(=O)c(N=Nc2ccc(Br)cc2)c(O)n(-c2ccccc2C)c1=S`, the T/C was 109 % of control under setting [1], 98 % of control under setting [2] and 98 % of control under setting [3].

With `O=NN(CCCl)C(=O)Nc1cc(NC(=O)N(CCCl)N=O)cc(C(=O)O)c1`, the T/C is, setting by setting: (dose: 0.22 mg/kg/injection, schedule: Q01DX009 (ip), vehicle: saline) 110 % of control; (dose: 0.34 mg/kg/injection, schedule: Q01DX009 (ip), vehicle: saline) 117 % of control; (dose: 0.52 mg/kg/injection, schedule: Q01DX009 (ip), vehicle: saline) 290 % of control; (dose: 0.62 mg/kg/injection, schedule: Q01DX001 (ip), vehicle: carboxymethylcellulose (CMC)) 112 % of control; (dose: 0.83 mg/kg/injection, schedule: Q04DX003 (ip), vehicle: saline) 114 % of control; (dose: 1.25 mg/kg/injection, schedule: Q01DX001 (ip), vehicle: carboxymethylcellulose (CMC)) 123 % of control. Also, the T/C by setting is: (dose: 1.25 mg/kg/injection, schedule: Q04DX003 (ip), vehicle: saline) 122 % of control; (dose: 1.7 mg/kg/injection, schedule: Q01DX001 (ip), vehicle: saline) 155 % of control; (dose: 2.6 mg/kg/injection, schedule: Q01DX001 (ip), vehicle: saline with Tween-80) 151 % of control; (dose: 5.0 mg/kg/injection, schedule: Q01DX009 (ip), vehicle: Klucel (hydroxypropylcellulose) (HPC)) 93 % of control; (dose: 5.0 mg/kg/injection, schedule: Q01DX009 (ip), vehicle: saline) 162 % of control; (dose: 6.6 mg/kg/injection, schedule: Q04DX003 (ip), vehicle: saline) 153 % of control. Moreover, the T/C reads like this: (dose: 9.0 mg/kg/injection, schedule: Q01DX001 (ip), vehicle: saline) 152 % of control; (dose: 10.0 mg/kg/injection, schedule: Q01DX009 (ip), vehicle: Klucel (hydroxypropylcellulose) (HPC)) 150 % of control and 160 % of control; (dose: 10.0 mg/kg/injection, schedule: Q01DX009 (ip), vehicle: saline) 212 % of control; (dose: 12.0 mg/kg/injection, schedule: Q01DX001 (ip), vehicle: saline) 150 % of control; (dose: 13.0 mg/kg/injection, schedule: Q04DX003 (ip), vehicle: saline) 155 % of control; (dose: 15.0 mg/kg/injection, schedule: Q01DX009 (ip), vehicle: Klucel (hydroxypropylcellulose) (HPC)) 150 % of control. Moreover, the T/C is 196 % of control (dose: 17.0 mg/kg/injection, schedule: Q01DX001 (ip), vehicle: saline with Tween-80); 195 % of control (dose: 20.0 mg/kg/injection, schedule: Q01DX009 (ip), vehicle: Klucel (hydroxypropylcellulose) (HPC)); 102 % of control (dose: 20.0 mg/kg/injection, schedule: Q01DX009 (ip), vehicle: saline); 161 % of control (dose: 20.0 mg/kg/injection, schedule: Q04DX003 (ip), vehicle: saline); 155 % of control (dose: 26.0 mg/kg/injection, schedule: Q01DX001 (ip), vehicle: saline with Tween-80); 152 % of control (dose: 26.0 mg/kg/injection, schedule: Q01DX001 (ip), vehicle: saline).

With `CCOC(=O)C1C(=O)C(CN(CCCl)CCCl)C(=O)C(C(=O)OCC)C1c1ccc(OC)c(OC)c1OC` (stereo not given), the T/C reads like this: under setting [8], 90 % of control; under setting [9], 92 % of control; under setting [10], 95 % of control.

For `COc1ccc(/C=N/NC(=O)C[n+]2ccccc2)cc1`, the T/C under setting [5] is 91 % of control, the T/C under setting [6] was 112 % of control and the T/C under setting [7] was 88 % of control.

As for `CC1C=CC2CC(O)C12` (stereo not given), the T/C is, setting by setting: under setting [6], 111 % of control; (dose: 100.0 mg/kg/injection, schedule: Q04DX003 (ip), vehicle: saline with Tween-80) 102 % of control; under setting [7], 93 % of control; (dose: 200.0 mg/kg/injection, schedule: Q04DX003 (ip), vehicle: saline with Tween-80) 98 % of control; (dose: 400.0 mg/kg/injection, schedule: Q01DX009 (ip), vehicle: saline with Tween-80) 99 % of control; (dose: 400.0 mg/kg/injection, schedule: Q04DX003 (ip), vehicle: saline with Tween-80) 98 % of control.

Take `CCOC(=O)C(C(C)=O)C(C)=O`: the T/C was 101 % of control (dose: 50.0 mg/kg/injection, schedule: Q01DX001 (ip), vehicle: saline); 107 % of control (dose: 100.0 mg/kg/injection, schedule: Q01DX001 (ip), vehicle: saline); 97 % of control (dose: 200.0 mg/kg/injection, schedule: Q01DX001 (ip), vehicle: saline); 97 % of control (dose: 400.0 mg/kg/injection, schedule: Q01DX001 (ip), vehicle: saline).

For `N#CCCSc1ccccc1`, the T/C was 112 % of control (dose: 25.0 mg/kg/injection, schedule: Q01DX009 (ip), vehicle: saline with Tween-80); 91 % of control under setting [5]; 100 % of control and 105 % of control under setting [6]; 86 % of control under setting [4]; 100 % of control (dose: 200.0 mg/kg/injection, schedule: Q04DX002 (ip), vehicle: saline with Tween-80).

Consider `CCOC(=O)C(Cc1ccccc1)(NC=O)C(=O)OCC`, for which the T/C is, setting by setting: under setting [8], 94 % of control; under setting [9], 98 % of control; under setting [10], 96 % of control.

As for `CO/N=C(\N)Oc1c(C)cccc1C`, the T/C was 107 % of control under setting [8], 96 % of control under setting [9] and 103 % of control under setting [10].

As for `CC1C(=O)NN=C1c1ccc([N+](=O)[O-])cc1` (stereo not given), the T/C is, setting by setting: (dose: 100.0 mg/kg/injection, schedule: Q01DX001 (ip), vehicle: carboxymethylcellulose (CMC)) 100 % of control; (dose: 200.0 mg/kg/injection, schedule: Q01DX001 (ip), vehicle: carboxymethylcellulose (CMC)) 100 % of control; (dose: 400.0 mg/kg/injection, schedule: Q01DX001 (ip), vehicle: carboxymethylcellulose (CMC)) 94 % of control.
